Measured values: patent US7709473B2, “Substituted 2H-[1,2,4]triazolo[4,3-a]pyrazines as GSK-3 inhibitors” (Pfizer Inc., priority 2004, dated 2010)

Target: GSK-3 (Homo sapiens, UniProt P49841)
Assay: GSK-3 inhibition, cell-free 33P-ATP peptide substrate SPA assay
Type: biochemical
Settings: read-out: inhibitory activity against GSK-3, expressed as IC50
Method: The specific activities of the compounds of formula (I) in inhibiting GSK-3 can be determined in both cell-free and cell-based assays, both of which have been previously described in the relevant art. See, for example, U.S. Pat. Nos. 6,417,185 and 6,489,344, the disclosures of which are incorporated herein by reference in their entirety.
A cell-free testing assay can be generally carried out by incubating GSK-3 with a peptide substrate, radiolabeled ATP (e.g., for example, γ^33P- or γ^32P-ATP, both of which are available from Amersham; Arlington Heights, Ill.), magnesium ions, and the compound to be assayed. […] The amount of γ^33P or γ^32P remaining in each well after washing is then quantified to determine the amount of radiolabeled phosphate incorporated into the peptide substrate. […]
Another example of a GSK-3 testing assay, similar to the one described hereinabove, is as follows: enzyme activities are assayed as the incorporation of ^33P from the gamma phosphate of ^33P-ATP (Amersham; Arlington Heights, Ill.; catalog #AH-9968) into biotinylated peptide substrate PKTP-KKAKKL. […] The final concentration of ATP is 0.5 μM (final specific radioactivity of 4 μCi/nmol), and the final concentration of substrate is 0.75 μM. […] Radioactivity associated with the beads is then quantified by standard scintillation counting. […]

Sequence of GSK-3 (P49841 whole entry): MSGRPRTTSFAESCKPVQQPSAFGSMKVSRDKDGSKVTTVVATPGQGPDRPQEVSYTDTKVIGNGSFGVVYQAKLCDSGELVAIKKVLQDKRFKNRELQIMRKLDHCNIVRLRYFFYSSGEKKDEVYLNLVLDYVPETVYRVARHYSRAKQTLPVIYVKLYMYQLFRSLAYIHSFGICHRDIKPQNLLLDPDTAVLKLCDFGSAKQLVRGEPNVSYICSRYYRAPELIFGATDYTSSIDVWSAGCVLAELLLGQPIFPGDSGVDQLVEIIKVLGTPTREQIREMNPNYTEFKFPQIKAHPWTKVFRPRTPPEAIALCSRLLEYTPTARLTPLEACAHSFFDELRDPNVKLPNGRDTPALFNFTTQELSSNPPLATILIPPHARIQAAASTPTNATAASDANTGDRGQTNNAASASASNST

IC50: 4.84 nM
Structure (SMILES): COc1ccc(OCCNc2nc(C(C)(C)C)cn3c(=O)[nH]nc23)cc1 [Example 218, 6-tert-Butyl-8-[2-(4-methoxy-phenoxy)-ethylamino]-2H-[1,2,4]triazolo[4,3-a]pyrazin-3-one]
